Measured values as given in patent US10829487B2, “Benzylamino substituted pyridopyrimidinones and derivatives as SOS1 inhibitors” (Boehringer Ingelheim International GmbH, priority 2017, dated 2020).

What was measured:
[1] = target: protein-protein interaction between SOS1 and KRAS G12D (Homo sapiens (Human), UniProt Q07889); assay: KRAS::SOS1 AlphaScreen Binding Assay
Procedure, shortened: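 Nucleotide-exchange interaction read by AlphaScreen (GSH acceptor / streptavidin donor beads, 10 μg/mL each): 10 nM KRAS G12D(1-169)-Avi, 10 μM GDP, 5 nM GST-SOS1(564-1049), 1% DMSO. Compound preincubated 30 min, then beads 60 min at RT in the dark; 11-point 1:5 series from 100 μM, duplicates; IC50 by 4-parameter logistic fit.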

CYP3A4 = CYP3A4 (Homo sapiens (Human), UniProt P08684); assay: Time dependent inhibition of CYP3A4 assay (TDI 3A4); format: in vitro ADME; details: hydroxy-midazolam formation after 30 min relative to 0 min preincubation; 25 uM compound; human liver microsomes; midazolam substrate
CYP3A4, sequence (P08684 whole entry): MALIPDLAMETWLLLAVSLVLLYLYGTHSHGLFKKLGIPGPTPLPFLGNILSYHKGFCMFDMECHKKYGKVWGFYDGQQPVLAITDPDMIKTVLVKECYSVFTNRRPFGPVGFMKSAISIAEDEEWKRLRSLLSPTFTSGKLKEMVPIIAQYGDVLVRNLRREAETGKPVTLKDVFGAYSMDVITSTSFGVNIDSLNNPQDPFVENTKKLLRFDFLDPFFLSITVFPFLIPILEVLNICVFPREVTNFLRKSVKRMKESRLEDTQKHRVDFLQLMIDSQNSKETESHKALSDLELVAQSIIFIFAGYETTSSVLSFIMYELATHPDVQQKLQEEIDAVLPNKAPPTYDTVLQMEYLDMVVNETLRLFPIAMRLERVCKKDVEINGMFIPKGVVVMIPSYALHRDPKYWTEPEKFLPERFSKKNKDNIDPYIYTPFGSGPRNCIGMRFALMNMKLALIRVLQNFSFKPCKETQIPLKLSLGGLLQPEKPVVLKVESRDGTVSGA
Description: Time Dependent Inhibition of CYP3A4 Assay (TDI 3A4):
After preincubation, the incubate is diluted 1:10 and the substrate midazolam is added for the main incubation (15 min). The main incubation is quenched with acetonitrile and the formation of hydroxy-midazolam is quantified via LC/MS-MS. The formation of hydroxy-midazolam from the 30 min preincubation relative to the formation from the 0 min preincubation is used as a readout. Values of less than 100% mean that the substrate midazolam is metabolized to a lower extend upon 30 min preincubation compared to 0 min preincubation. In general low effects upon 30 min preincubation are desired (corresponding to values close to 100%)

[2] = Metabolic (microsomal) stability assay, mouse liver microsomes (MLM); format: in vitro ADME; details: 1 μM test compound, 37° C.
Description: (§1) Metabolic (Microsomal) Stability Assay: The metabolic degradation of the test compound is assayed at 37° C. with pooled liver microsomes (mouse (MLM), rat (RLM) or human (HLM)). The final incubation volume of 74 μL per time point contains TRIS buffer (pH 7.5; 0.1 M), magnesium chloride (6.5 mM), microsomal protein (0.5 mg/mL for mouse/rat, 1 mg/mL for human specimens) and the test compound at a final concentration of 1 μM. Following a short preincubation period at 37° C., the reactions are initiated by addition of 8 μL beta-nicotinamide adenine dinucleotide phosphate, reduced form (NADPH, 10 mM) and terminated by transfering an aliquot into solvent after different time points. Additionally, the NADPH-independent degradation is monitored in incubations without NADPH, terminated at the last time point by addition of acetonitrile. The quenched incubations are pelleted by centrifugation (1811 g, 5 min). An aliquot of the supernatant is assayed by LC-MS/MS for the amount of parent compound. In vitro intrinsic clearance (CLint, in vitro) is calculated from the time course of the disappearance of the test drug during the microsomal incubation. Each plot is fitted to the first-order elimination rate constant as C(t)=C0*exp(−ke*t), where C(t) and C0 are the concentration of unchanged test drug at incubation time t and that at preincubation and ke is the disappearance rate constant of the unchanged drug. Subsequently, CLint, in vitro (μL min^−1·amount protein) values are converted to CLint, in vitro (mL min^−1·kg^−1) for the whole body. CLint, in vitro data are scaled up using physiological parameters. For better across species comparison the predicted clearance is expressed as percent of the liver blood flow [% QH] in the individual species. In general, high stability (corresponding to low % QH) of the compounds across species is desired.

[3] = Metabolic (microsomal) stability assay, rat liver microsomes (RLM); format: in vitro ADME; details: 1 μM test compound, 37° C.
Description: as §1

[4] = Metabolic (microsomal) stability assay, human liver microsomes (HLM); format: in vitro ADME; details: 1 μM test compound, 37° C.
Description: as §1

[5] = tested on: ERK phosphorylation in DLD-1 cells (KRAS G13D); assay: ERK Phosphorylation Assay (AlphaLISA SureFire Ultra p-ERK1/2); format: cell-based; details: Homo sapiens, 1 h compound, EGF 50 ng/mL 10 min, read-out: pERK
Description: ERK Phosphorylation Assay
Low IC50 values are indicative of high potency of the SOS1 inhibitor compounds in this assay setting.
ERK phosphorylation assays are performed using the following human cell lines: DLD-1 (ATCC CCL-221): human colon cancer with a KRAS G13D mutation;
DLD-1 cells (ATCC CCL-221) are seeded at 50,000 cells per well in/60 μL of RPMI with 10% FBS, non-essential amino acids, pyruvate and glutamax in Greiner TC 384 plates. The cells are incubated for 1 h at room temperature and then incubated overnight in an incubator at 37° C. and 5% CO2 in a humidified atmosphere. 60 nL compound solution (10 mM DMSO stock solution) is then added using a Labcyte Echo 550 device. After a 1 h incubation in the aforementioned incubator, 3 μL Epidermal Growth Factor (EGF, final concentration 50 ng/mL) is added. 10 minutes later the medium is removed, and the cells lysed by addition of 20 μL of 1.6-fold lysis buffer from the AlphaLISA SureFire Ultra pERK1/2 (Thr202/Tyr204) Assay Kit with added protease inhibitors, 100 nM trametinib+100 nM staurosporine. After 20 minutes of incubation at room temperature with shaking, 6 μL of each lysate sample is transferred to a 384-well Proxiplate and analyzed for pERK (Thr202/Tyr204) with the AlphaLISA SureFire Ultra pERK1/2 (Thr202/Tyr204) Assay Kit. 3 μL Acceptor Mix and 3 μL Donor Mix are added under subdued light and incubated for 2 h at room temperature in the dark, before the signal is measured on a Perkin Elmer Envision plate reader using 384 AlphaScreen settings for Proxiplates. Data are fitted by iterative calculation with variable hill slope. The sigmoidal curve slope is fitted using a default fitting curve to ascertain IC50 values.

[6] = Table 20, KRAS::SOS1 AlphaScreen (SOS1 / KRAS G12D)
[7] = KRAS G12D::SOS1 AlphaScreen, measured without EDTA unless marked with an asterisk

protein-protein interaction between SOS1 and KRAS G12D, sequence (Q07889 564-1049, stated change not applied): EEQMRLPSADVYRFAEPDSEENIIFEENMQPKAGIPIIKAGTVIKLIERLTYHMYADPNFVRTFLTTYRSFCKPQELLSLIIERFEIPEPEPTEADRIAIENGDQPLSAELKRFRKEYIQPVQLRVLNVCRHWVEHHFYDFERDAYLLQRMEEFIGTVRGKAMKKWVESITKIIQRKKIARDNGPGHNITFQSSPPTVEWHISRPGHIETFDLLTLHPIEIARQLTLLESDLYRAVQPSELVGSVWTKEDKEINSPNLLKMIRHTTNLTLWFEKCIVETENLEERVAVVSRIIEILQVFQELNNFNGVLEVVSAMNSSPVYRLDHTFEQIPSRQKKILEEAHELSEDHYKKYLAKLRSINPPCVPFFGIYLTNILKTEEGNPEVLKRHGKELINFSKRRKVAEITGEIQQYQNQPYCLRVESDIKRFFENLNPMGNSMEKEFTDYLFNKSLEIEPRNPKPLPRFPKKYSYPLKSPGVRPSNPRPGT

SMILES	IC50 [1, 6] [nM]	TDI 3A4 [%] (CYP3A4)	MLM [% QH] [2] [% QH]	RLM [% QH] [3] [% QH]	HLM [% QH] [4] [% QH]	IC50 [5] [nM]	IC50 [1, 7] [nM]
Cc1nc(N[C@H](C)c2cccc(C(F)F)c2C)c2cn(C3(C)CC3)c(=O)cc2n1 [I-20]	3	93					
Cc1nc(N[C@H](C)c2cccc(C(F)F)c2C)c2cn(C3CCC3)c(=O)cc2n1 [I-22]	6	87					
Cc1nc(N[C@H](C)c2cccc(C(F)(F)F)c2)c2cn(C3(C)CC3)c(=O)cc2n1 [I-25]	13	90	<24	<23	<24		
Cc1nc(N[C@H](C)c2cccc(C(F)(F)F)c2C)c2cn(C3CCOCC3)c(=O)cc2n1 [I-49]	6	92				81	
Cc1nc(N[C@H](C)c2cccc(C(C)(F)F)c2)c2cn(C3(C)CC3)c(=O)cc2n1 [I-50]	9	82	<24	<23	<24		
Cc1nc(N[C@H](C)c2cccc(C(C)(F)F)c2F)c2cn(C3(CF)CC3)c(=O)cc2n1 [I-53]	4	84				74	
Cc1nc(N[C@H](C)c2cccc(C(C)(F)F)c2F)c2cn(C3(C(F)F)CC3)c(=O)cc2n1 [I-54]	5	84	55	<23	<24		
Cc1nc(N[C@H](C)c2cccc3c2CCC3(F)F)c2cn(C3(C)CC3)c(=O)cc2n1 [I-57]	2	87				63	
C[C@@H](Nc1ncnc2cc(=O)n(C3(C)CC3)cc12)c1cccc(C(F)(F)F)c1 [I-75]	15	86					
Cc1nc(N[C@H](C)c2cccc(C(F)F)c2F)c2cn(C3(C)CC3)c(=O)c(F)c2n1 [I-80]	9	86	50	<23	<24		
Cc1nc(N[C@H](C)c2cccc(C(F)F)c2F)c2cn(C3(CF)CC3)c(=O)c(F)c2n1 [I-81]	6	85	64	<23	<24		
Cc1nc(N[C@H](C)c2cccc(C(C)(F)F)c2F)c2cn(C3(CF)CC3)c(=O)c(F)c2n1 [I-87]	4	81				100	
Cc1nc(N[C@H](C)c2cccc(C(F)(F)C(C)(C)O)c2F)c2cn(C3(C(F)F)CC3)c(=O)c(F)c2n1 [I-89]	2	83					
Cc1nc(N[C@H](C)c2cccc(C(F)(F)F)c2)c2cn(C3(C(F)F)CC3)c(=O)cc2n1 [I-97]	14		<24	<23	<24	81	
Cc1nc(N[C@H](C)c2cccc(C(F)(F)F)c2F)c2cn(C3(C(F)F)CC3)c(=O)cc2n1 [I-98]	8	85	<24	<23	<24		
Cc1nc(N[C@H](C)c2cccc3c2OCC3(F)F)c2cn(C3(C)CC3)c(=O)cc2n1 [I-101]	4		59	<23	36	79	
Cc1nc(N[C@H](C)c2cccc(C(F)F)c2C)c2cn(C3(C)CCOC3)c(=O)cc2n1 (stereo partly shown) [I-123]		87				118	3
Cc1nc(N[C@H](C)c2cccc(C(F)(F)F)c2C)c2cn(C3(C)CCOC3)c(=O)cc2n1 (stereo partly shown) [I-126]		88				51	5
Cc1nc(N[C@H](C)c2cccc(C(F)(F)F)c2C)c2cn(C3(c4ccccc4)CCOCC3)c(=O)cc2n1 [I-127]		97					23
Cc1c(=O)n(C2(C(F)F)CC2)cc2c(N[C@H](C)c3cccc(C(F)F)c3F)ncnc12 [I-163]		82					15
Cc1c(=O)n([C@@H]2C[C@H]2C(F)F)cc2c(N[C@H](C)c3cccc(C(F)F)c3F)ncnc12 [I-166]		87	48	38	24		26
Cc1c(=O)n(C23CC(C2)C3)cc2c(N[C@H](C)c3cccc(C(F)F)c3F)ncnc12 [I-169]		84	64	44	<24		12
Cc1c(=O)n(C23CC(F)(C2)C3)cc2c(N[C@H](C)c3cccc(C(F)F)c3F)ncnc12 [I-170]		82	51	37	<24		12
